In one test the test system is ADAR1a mRNA. The test is described as follows: Q-PCR of ADAR1a mRNA expression in SH-SY5Y cells. Type of test: cell-based. As to conditions: Homo sapiens, 10 micromolar, 24 hours, read-out: QPCR: RNA expresion (% of variation) ADAR1a. The text has this: ADAR1a RNA Expression in SH-SY5Y cells (Q-PCR, Applied TaqMan probes ref: Hs 01020780_m1).
(§1) The SH-SY5Y Human neuroblastoma cell line was purchased from ECACC (EC94030304 from the European Collection of Cell Cultures (ECACC)). The cell line SH-SY5Y is a thrice-cloned neuroblastoma, originally from SK-N-SH and first reported in 1978. A neuroblast-like subclone of SK-N-SH, named SH-SY, was subcloned as SH-SY5, which was subcloned again as SH-SY5Y (Biedler J L et al. Cancer Res. 1978; 38:3751-7). Cells were cultured in high glucose D-MEM medium (Sigma, ref D6546) supplemented with 10% dialysed FCS (PAA, ref. A15-507, lot A50708-0050), 2 mM Glutamine (Sigma, G7513) and a 1× mix of Antibiotic-Antimycotic Stabilized (Sigma, ref. A5955) at 37° C. under a humidified atmosphere of 5% CO2. The day preceeding drug or hIFNα treatment, SH-SY5Y cells were plated in 6-well plates at a density of 10^6 cells/well. One 6-well plate was used per experimental condition (concentration or treatment duration). The day after plating, culture medium was removed and cells were incubated for 24 hours with a 10 μM solution of the compound to be tested molecules or a 1000 IU/ml solution of hIFNα (PBL biomedical laboratories). For hIFNα dose-response experiment cells were incubated with 1, 10, 100, and 1000 IU/ml of hIFNα solutions. For hIFNα time-course experiment cells were treated for 24, 48, or 72 hours with a 1000 IU/ml solution of hIFNα. After the different treatments, cells were directly lysed in RLT lysis buffer and total RNA purified according to manufacturer's protocol (Qiagen, RNeasy Plus mini kit, ref. 74134). Total RNA was then reverse transcribed with Thermoscript RT-PCR system Plus Taq (Invitrogen, 11146-032) and the resulting cDNA used for CE-SSCP and quantitative real-time PCR.
(§2) In order to quantify levels of 5-HT2CR, ADAR1 and ADAR2 mRNA expression in SH-SY5Y cells or in prefrontal cortex, total blood and skin of Balb/cJ mice, first-strand cDNA was synthesized by reverse transcription and subjected to TaqMan quantitative real-time PCR analysis (Applied Biosystems). All probes and primers used for the quantitative PCRs were from Applied Bio systems (Gene Expression Assays, Assay-On-Demand) (see Table 1, Applied Biosystems primers and probes references): […]
(§3) Human GAPDH (product no. 4326317E; Applied Biosystems) or mouse GAPDH (product no. 4352339E; Applied Biosystems) were included in each multiplex PCR as an internal control. Real-time PCR and subsequent analysis were performed with a 48-well block StepOne RT PCR system (Applied Biosystems). Quantification of target gene expression in all samples was normalized to GAPDH expression by the equation Ct (target)−Ct (GAPDH)=ΔCt, where Ct is the threshold cycle number. The mean ΔCt value of samples from untreated mice or cells was determined and used as a reference point for the samples corresponding to treated animals or cells. Differences between untreated and treated animals or cells, including individual variation were calculated by the equation (ΔCt (individual treated samples)−ΔCt (mean of untreated samples)=ΔΔCt). Changes in target gene expression (n-fold) in each sample were calculated by 2^−ΔΔCt, from which the means and standard deviations (SD) were derived.
(§4) The SH-SY5Y Human neuroblastoma cell line was purchased from ECACC. Cells were cultured in high glucose D-MEM medium (Sigma, ref. D6546) supplemented with 10% dialysed FCS (PAA, ref. A15-507, lot A50708-0050), 2 mM Glutamine (Sigma, ref. G7513) and a 1× mix of Antibiotic-Antimycotic Stabilized (Sigma, ref. A5955) at 37° C. under a humidified atmosphere of 5% CO2. The day preceeding hIFNα or drug treatment, SH-SY5Y cells were plated in 6-well plates (Corning, Multiwell Plate, 6 well, Corning CellBIND Surface, ref 3335) at a density of 5; 7 or 9·10^6 cells/well for a 72-, 48- or 24-hour treatment respectively. Six or eight wells of 6-well plates were used per experimental condition (control, concentration or treatment duration).

A further test deals with 5-HT2cR mRNA. Briefly: Editing profile of 5-HT2cR mRNA isoforms by CE-SSCP (nested PCR) in SH-SY5Y cells; enzyme activity indexes worked out from the profile. Type of test: cell-based, human. As to conditions: for activation at 10 µM: Homo sapiens.
A further test concerns ADAR2 mRNA. Briefly: Q-PCR of ADAR2 mRNA expression in SH-SY5Y cells. The conditions noted are these: Homo sapiens, 10 micromolar, 24 hours, read-out: QPCR: RNA expresion (% of variation) ADAR2. It is filed as cell-based. On the procedure:
as §1, §2, §3, §4

The next test has as its system ADAR1b mRNA. The test is described as follows: Q-PCR of ADAR1b mRNA expression in SH-SY5Y cells. Type of test: cell-based. The conditions noted are these: Homo sapiens, 10 micromolar, 24 hours, read-out: QPCR: RNA expresion (% of variation) ADAR1b. The method, then: as §1, §2, §3, §4
The mark [1] stands for this setting: SH-SY5Y, 24 h, read-out: ENZYME ACTIVIY INDEX (% of variation) ADAR1.
Setting [2] is: SH-SY5Y, 24 h, read-out: ENZYME ACTIVIY INDEX (% of variation) ADAR1 + 2.
Setting [3] is: SH-SY5Y, 24 h, read-out: ENZYME ACTIVIY INDEX (% of variation) ADAR2.
Setting [4] is: SH-SY5Y, 24 h, read-out: ENZYME ACTIVIY INDEX (% of variation) ADARI.
[5] abbreviates: SH-SY5Y, 24 h, read-out: ENZYME ACTIVIY INDEX (% of variation) ADARII.
[6] abbreviates: SH-SY5Y, 24 h, read-out: ENZYME ACTIVIY INDEX (% of variation) NE.
Where [7] appears, read: SH-SY5Y, 10 micromolar, 24 hours, read-out: ENZYME ACTIVIY INDEX (% of variation) ADAR1.
The mark [8] stands for this setting: SH-SY5Y, 10 micromolar, 24 hours, read-out: ENZYME ACTIVIY INDEX (% of variation) ADAR1 + 2.
[9] abbreviates: SH-SY5Y, 10 micromolar, 24 hours, read-out: ENZYME ACTIVIY INDEX (% of variation) ADAR2.
The mark [10] stands for this setting: SH-SY5Y, 10 micromolar, 24 hours, read-out: ENZYME ACTIVIY INDEX (% of variation) ADARI.
The mark [11] stands for this setting: SH-SY5Y, 10 micromolar, 24 hours, read-out: ENZYME ACTIVIY INDEX (% of variation) ADARII.
Where [12] appears, read: SH-SY5Y, 10 micromolar, 24 hours, read-out: ENZYME ACTIVIY INDEX (% of variation) NE.

Read-outs that look alike come from different tables or passages of the source. Marks after values point to notes of the source that are not given here.

As to `NCC1(CC(=O)O)CCCCC1` [Gabapentin], in the test on ADAR1a mRNA, the % change in ADAR1a mRNA expression at 10 µM is -42%. The activation at 10 µM in the test with 5-HT2cR mRNA (setting [1]) was 19.2%; in the test with 5-HT2cR mRNA (setting [2]), -28.5%; with 5-HT2cR mRNA (setting [3]) it was -26.7%; with 5-HT2cR mRNA (setting [4]), 10.1%; with 5-HT2cR mRNA (setting [5]) it was -28.1%; with 5-HT2cR mRNA (setting [6]), -8.3%. The percent change in ADAR2 mRNA expression at 10 µM with ADAR2 mRNA was -21%. In the test with ADAR1b mRNA, the percent change in mRNA expression at 10 µM was -34%.
Consider `Nc1nnc(-c2cccc(Cl)c2Cl)c(N)n1` [Lamotrigine], for which, in the test with ADAR1a mRNA, the % change in ADAR1a mRNA expression at 10 µM was -26%. Moreover, the activation at 10 µM in the test with 5-HT2cR mRNA (setting [7]) is 5.9%; in the test with 5-HT2cR mRNA (setting [8]) it was -24.6%; in the test with 5-HT2cR mRNA (setting [9]), -23%; with 5-HT2cR mRNA (setting [10]) it was 0.1%; in the test on 5-HT2cR mRNA (setting [11]), -24.3%; in the test on 5-HT2cR mRNA (setting [12]), 0.9%. For the same compound, the percent change in ADAR2 mRNA expression at 10 µM with ADAR2 mRNA was -32%. Further, the percent change in mRNA expression at 10 µM in the test with ADAR1b mRNA was -26%.
On to `CC[C@@H](C(N)=O)N1CCCC1=O` [Levetiracetam], for which, in the test on ADAR1a mRNA, the % change in ADAR1a mRNA expression at 10 µM was -9%. Besides, the activation at 10 µM is 12% in the test on 5-HT2cR mRNA (setting [7]); -36.6% in the test with 5-HT2cR mRNA (setting [8]); 10.9% with 5-HT2cR mRNA (setting [9]); 2.8% in the test on 5-HT2cR mRNA (setting [10]); -27.4% in the test with 5-HT2cR mRNA (setting [11]); -3.1% with 5-HT2cR mRNA (setting [12]). Also, in the test on ADAR2 mRNA, the percent change in ADAR2 mRNA expression at 10 µM is -17%. The percent change in mRNA expression at 10 µM with ADAR1b mRNA was -11%.
Take `Cc1cc2c(s1)Nc1ccccc1N=C2N1CCN(C)CC1` [Olanzapine]: in the test on ADAR1a mRNA, the % change in ADAR1a mRNA expression at 10 µM was -54%. Moreover, the activation at 10 µM with 5-HT2cR mRNA (setting [1]) is -23.2%; in the test with 5-HT2cR mRNA (setting [2]), 84.9%; in the test with 5-HT2cR mRNA (setting [3]), 9.2%; with 5-HT2cR mRNA (setting [4]), -7.6%; with 5-HT2cR mRNA (setting [5]), 70.5%; with 5-HT2cR mRNA (setting [6]), 7%. Also, the percent change in ADAR2 mRNA expression at 10 µM in the test with ADAR2 mRNA was 92%. Moreover, the percent change in mRNA expression at 10 µM in the test on ADAR1b mRNA is 20%.
As to `NC(=O)N1c2ccccc2CC(=O)c2ccccc21` [Oxcarbazepine], the % change in ADAR1a mRNA expression at 10 µM with ADAR1a mRNA was -28%. Moreover, the activation at 10 µM with 5-HT2cR mRNA (setting [7]) is 1.1%; in the test with 5-HT2cR mRNA (setting [8]), -25.6%; with 5-HT2cR mRNA (setting [9]) it was -25.9%; with 5-HT2cR mRNA (setting [10]) it was -3.9%; in the test on 5-HT2cR mRNA (setting [11]) it was -25.6%; in the test with 5-HT2cR mRNA (setting [12]) it was 4.8%. For the same compound, the “ENZYME ACTIVIY INDEX (% of variation) EC” value in the test with 5-HT2cR mRNA (SH-SY5Y, 10 micromolar, 24 hours) is given as −65.2* %. The percent change in ADAR2 mRNA expression at 10 µM in the test with ADAR2 mRNA is -15%. Also, the percent change in mRNA expression at 10 µM in the test with ADAR1b mRNA is -18%.
Take `C[C@H](NC(=O)C(C)(C)Oc1ccc(C(F)(F)F)cn1)[C@@H](Cc1ccc(Cl)cc1)c1cccc(C#N)c1` [Taranabant]: the “alteration of 5-HT2cR mRNA editing compared with that observed after INFα treatment (component analysis, FIG. 4)” value in the test with 5-HT2cR mRNA (SH-SY5Y cells, 48 hours, 10 μM) is on record as “similarly altered”.

The values above are taken from patent publication US8771953B2, “Evaluation of the potential risk of drug induced mood disturbance and suicide: use of a dedicated platform” (Biocortech, priority 2008, dated 2014).
